The source of these data is patent US20240425491A1, “HETEROARYL COMPOUNDS USEFUL IN THE TREATMENT OF COGNITIVE DISORDERS” (University College Cardiff Consultants Limited, priority 2021, published 2024).

Where a name gives a salt, the structure may show the parent alone.

Test [1] has as its target T1, human recombinant GABAAR containing α5β3γ2 subunits (benzodiazepine site) (Homo sapiens, UniProt P18507+P31644).
T1 construct: expressed in transfected cells; host or cells: mouse L(tk−) cells, dexamethasone-inducible vector pMSGneo
The test is described as follows: In vitro radioligand binding assay (α5-GABAAR Ki). The following applies: inhibition of [3H]Ro15-1788 binding, membranes of L(tk−) cells expressing human α5β3γ2; read-out: α5-GABAAR Ki. The essentials: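 Membranes from mouse L(tk^−) cells stably expressing human α5β3γ2 GABAAR incubated 1 h at 4° C with 4 nM [^3H]Ro15-1788 and test compound; nonspecific binding with 1 μM TP003. Filter-bound radioactivity counted; Ki from IC50 by Cheng-Prusoff using measured Kd.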

The target of test [2] is T2, human α5β3γ2 GABAARs in mouse L(tk−) cells (Homo sapiens, UniProt P18507+P31644).
T2 construct: expressed in transfected cells; host or cells: mouse L(tk−) cells, dexamethasone-inducible vector pMSGneo
T2 sequence (P31644 32-462): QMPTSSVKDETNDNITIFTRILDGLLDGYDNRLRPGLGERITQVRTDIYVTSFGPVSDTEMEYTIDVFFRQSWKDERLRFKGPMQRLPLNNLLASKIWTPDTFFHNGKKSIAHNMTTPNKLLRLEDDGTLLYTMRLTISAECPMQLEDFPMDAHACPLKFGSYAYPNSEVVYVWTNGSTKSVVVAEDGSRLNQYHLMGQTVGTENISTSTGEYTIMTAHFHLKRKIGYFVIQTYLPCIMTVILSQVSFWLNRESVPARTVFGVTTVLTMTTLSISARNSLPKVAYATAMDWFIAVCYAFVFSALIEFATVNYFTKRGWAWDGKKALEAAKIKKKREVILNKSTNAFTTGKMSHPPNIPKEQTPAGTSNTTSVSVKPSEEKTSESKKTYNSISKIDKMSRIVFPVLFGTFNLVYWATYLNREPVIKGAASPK
T2 sequence (P28472 26-473 partner): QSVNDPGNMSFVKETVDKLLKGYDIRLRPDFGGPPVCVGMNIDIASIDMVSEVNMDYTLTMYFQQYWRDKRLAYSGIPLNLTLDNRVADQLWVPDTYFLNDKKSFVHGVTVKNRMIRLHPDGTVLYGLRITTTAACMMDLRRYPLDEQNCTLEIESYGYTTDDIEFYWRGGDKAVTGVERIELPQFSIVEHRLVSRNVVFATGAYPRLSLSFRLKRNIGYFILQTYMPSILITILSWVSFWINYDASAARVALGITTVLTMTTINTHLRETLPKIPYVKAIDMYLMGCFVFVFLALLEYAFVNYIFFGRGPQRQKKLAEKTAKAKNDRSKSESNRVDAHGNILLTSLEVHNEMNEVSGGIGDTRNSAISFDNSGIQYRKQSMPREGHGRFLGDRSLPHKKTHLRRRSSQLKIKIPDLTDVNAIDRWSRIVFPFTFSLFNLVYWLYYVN
T2 sequence (P18507 40-475): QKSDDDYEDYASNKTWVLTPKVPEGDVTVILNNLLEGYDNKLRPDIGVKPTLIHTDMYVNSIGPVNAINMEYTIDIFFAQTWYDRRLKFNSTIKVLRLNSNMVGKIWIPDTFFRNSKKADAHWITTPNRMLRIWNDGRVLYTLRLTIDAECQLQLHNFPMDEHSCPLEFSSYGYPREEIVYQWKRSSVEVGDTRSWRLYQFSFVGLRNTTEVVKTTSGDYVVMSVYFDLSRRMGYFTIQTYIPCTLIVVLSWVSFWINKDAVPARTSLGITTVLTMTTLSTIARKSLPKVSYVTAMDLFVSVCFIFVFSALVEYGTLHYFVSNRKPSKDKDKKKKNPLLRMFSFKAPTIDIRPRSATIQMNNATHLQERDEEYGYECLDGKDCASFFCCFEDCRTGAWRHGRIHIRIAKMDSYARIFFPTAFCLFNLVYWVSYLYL
The test is described as follows: In vitro electrophysiological recording assay (α5-GABAAR relative efficacy), QPatch. The class given is cell-based. The following applies: GABA EC10-20. In short, it runs like this: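 Whole-cell QPatch recordings at 20-22° C, −65 mV holding, in dexamethasone-induced (1 μM, 24 h) L(tk−) cells. Compound pre-applied ≥1 min, then co-applied with GABA EC10-20; percentage change in leak-corrected peak current, taken at ≥100× Ki, normalised to DMCM efficacy; 0.1% DMSO final.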

Test [3] deals with T3, human α5β3γ2L GABAA receptors in HEK293 cells (Homo sapiens, UniProt P18507+P31644).
T3 construct: expressed in transfected cells
T3 sequence (P31644 32-462): as the sequence (P31644 32-462) above
T3 sequence (P28472 26-473 partner): as the sequence (P28472 26-473 partner) above
T3 sequence (P18507 40-475): as the sequence (P18507 40-475) above
The test is described as follows: In vitro electrophysiological recording assay (α5-GABAAR relative efficacy), SyncroPatch. Conditions: Conc 0.1 μM; GABA EC10-20. The class given is cell-based. The essentials: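 HEK293 cells stably expressing the receptor, automated whole-cell patch clamp at −80 mV, room temperature (20-22° C). Compound pre-incubated 1-2 min, then co-applied with GABA EC10-20; % change in peak current vs GABA alone (leak-subtracted). Tested generally at ≥100× Ki and normalised to DMCM efficacy as relative efficacy.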

In test [4] the test system is mouse hippocampal brain slices (LTP suppressed by etomidate). The test is described as follows: Electrophysiology in hippocampal slices - long term potentiation assay.

T1 sequence (P31644 32-462): as the sequence (P31644 32-462) above
T1 sequence (P28472 26-473 partner): as the sequence (P28472 26-473 partner) above
T1 sequence (P18507 40-475): as the sequence (P18507 40-475) above

Consider `CNCc1ccc(-c2ccc(NC(=O)c3c(-c4ccccc4)noc3C)c(OC)n2)cn1` [Example 190, N-[2-Methoxy-6-[6-(methylaminomethyl)-3-pyridyl]-3-pyridyl]-5-methyl-3-phenyl-isoxazole-4-carboxamide], for which the inhibitory constant (Ki) in test [1] is 1.1 nM. The “α5-GABAAR Relative Efficacy (to DMCM), Qpatch” value in test [2] (Conc 0.1 μM) is given as −0.59. In addition, in test [3], the “α5-GABAAR Relative Efficacy (to DMCM), SyncroPatch” value was −0.72.
For `COc1nc(-c2nnc3n2CCNC3)ccc1NC(=O)c1c(-c2ccccc2)noc1C` [Example 196, N-(2-Methoxy-6-(5,6,7,8-tetrahydro-[1,2,4]triazolo[4,3-a]pyrazin-3-yl)pyridin-3-yl)-5-methyl-3-phenylisoxazole-4-carboxamide dihydrochloride], in test [1], the Ki stood at 23.5 nM. Further, the “α5-GABAAR Relative Efficacy (to DMCM), Qpatch” value in test [2] (Conc 3 μM) is listed as −0.71. Besides, in test [3], the “α5-GABAAR Relative Efficacy (to DMCM), SyncroPatch” value was −0.68.
Turning to `COc1nc(-c2ccc(CN)nc2)ccc1NC(=O)c1c(-c2ccccc2)noc1C.Cl` [Example 199, N-[6-[6-(Aminomethyl)-3-pyridyl]-2-methoxy-3-pyridyl]-5-methyl-3-phenyl-isoxazole-4-carboxamide hydrochloride], in test [1], the inhibition constant Ki worked out at 1.6 nM. Moreover, in test [2] (Conc 0.3 μM), the “α5-GABAAR Relative Efficacy (to DMCM), Qpatch” value is −0.82. In addition, the “α5-GABAAR Relative Efficacy (to DMCM), SyncroPatch” value in test [3] is −0.93.
Regarding `Cc1onc(-c2ccccc2)c1C(=O)Nc1ccc(-n2ccnc2)nc1OC(C)C` [Example 206, N-(6-(1H-Imidazol-1-yl)-2-isopropoxypyridin-3-yl)-5-methyl-3-phenylisoxazole-4-carboxamide], the Ki in test [1] was 1.7 nM. Also, the “α5-GABAAR Relative Efficacy (to DMCM), Qpatch” value in test [2] (Conc 0.3 μM) is −0.55. The “α5-GABAAR Relative Efficacy (to DMCM), SyncroPatch” value in test [3] is −1.03.
In the case of `Cc1onc(-c2ccccc2)c1C(=O)Nc1ccc(-c2cnc(CN)nc2)nc1OC(C)C` [Example 207, N-(6-(2-(Aminomethyl)pyrimidin-5-yl)-2-isopropoxypyridin-3-yl)-5-methyl-3-phenylisoxazole-4-carboxamide hydrochloride], the inhibition constant Ki in test [1] was found to be 0.3 nM. In addition, the “α5-GABAAR Relative Efficacy (to DMCM), Qpatch” value in test [2] (Conc 0.1 μM) is −0.56. In test [3], the “α5-GABAAR Relative Efficacy (to DMCM), SyncroPatch” value is −0.83.
On to `Cc1onc(-c2ccc(F)cc2)c1C(=O)Nc1ccc(-c2cnc3n2CCNC3)nc1OC(C)C.Cl` [Example 208, 3-(4-Fluorophenyl)-N-(2-isopropoxy-6-(5,6,7,8-tetrahydroimidazo[1,2-a]pyrazin-3-yl)pyridin-3-yl)-5-methylisoxazole-4-carboxamide hydrochloride], for which the inhibitory constant (Ki) in test [1] is 0.7 nM. Moreover, the “α5-GABAAR Relative Efficacy (to DMCM), Qpatch” value in test [2] (Conc 0.1 μM) is −0.38. Also, the “α5-GABAAR Relative Efficacy (to DMCM), SyncroPatch” value in test [3] was −0.70.
On to `CCOC(=O)c1cncn1[C@H](C)c1ccccc1` [etomidate, reference compound], for which the “magnitude of LTP (fEPSP slope as % of control fEPSPs prior to 4-TBS vs time)” value in test [4] (etomidate 3 μM alone, n=17, FIG. 2A) is listed as “reduced”. Moreover, the “fEPSP slope at 50-60 min post-delivery of the 4-TBS” value in test [4] (etomidate alone compared to control, FIG. 2B) is reported as “significantly reduced fEPSP slope”.
